Patent US6528528B2 (Warner-Lambert Company, priority 1997, dated 2003)

Assays:
[1] = biological target: T1, rabbit reticulocyte 15-LO (Oryctolagus cuniculus, UniProt P12530); assay: Rabbit Reticulocyte 15-LO Assay (h15LO); format: biochemical; details: for IC50: 2U rabbit reticulocyte 15-LO, 174 μM linoleic acid, 15 minutes at 4° C.; for h15LO, value given as bare %: concentration not given
T1 construct: Fifteen-lipoxygenase was obtained from phenylhydrazine-treated rabbits and purified per the method of Rapoport; from tissue; host or cells: reticulocytes of phenylhydrazine-treated rabbits
T1 sequence (P12530 1-663): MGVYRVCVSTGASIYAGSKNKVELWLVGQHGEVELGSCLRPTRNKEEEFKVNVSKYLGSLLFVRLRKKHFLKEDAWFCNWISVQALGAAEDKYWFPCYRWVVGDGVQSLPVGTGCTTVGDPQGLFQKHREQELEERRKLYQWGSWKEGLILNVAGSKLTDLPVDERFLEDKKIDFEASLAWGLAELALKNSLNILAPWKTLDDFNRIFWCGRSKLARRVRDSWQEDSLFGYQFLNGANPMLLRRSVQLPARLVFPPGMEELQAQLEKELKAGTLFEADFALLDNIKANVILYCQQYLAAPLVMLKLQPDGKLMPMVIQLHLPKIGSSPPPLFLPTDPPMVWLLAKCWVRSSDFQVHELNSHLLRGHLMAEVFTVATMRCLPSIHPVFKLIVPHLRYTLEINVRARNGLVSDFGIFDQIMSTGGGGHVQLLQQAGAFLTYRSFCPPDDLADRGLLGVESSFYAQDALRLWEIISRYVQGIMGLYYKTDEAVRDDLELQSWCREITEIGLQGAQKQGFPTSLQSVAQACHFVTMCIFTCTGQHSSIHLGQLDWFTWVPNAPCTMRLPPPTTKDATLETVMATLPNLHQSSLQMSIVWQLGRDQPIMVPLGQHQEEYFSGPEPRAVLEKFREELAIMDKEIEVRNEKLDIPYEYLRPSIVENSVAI
Procedure, shortened: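 Purified rabbit reticulocyte 15-LO (2U) incubated with inhibitor and 174 μM linoleic acid in PBS with 0.2% Na cholate for 15 minutes at 4° C. 13-HPODE quantified by peak area against 13-HODE standard curve; % inhibition relative to uninhibited reaction.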

[2] = tested on: Rabbits fed a 0.25% cholesterol, 3% peanut oil, 3% coconut oil diet; assay: In vivo tests: aortic atherosclerotic lesions in rabbits fed a cholesterol diet; details: 10 mg/kg as diet admix, 12 weeks
Method: The entire descending thoracic aorta was assayed for its cholesteryl ester (CE), free cholesterol phospholipid content. The lipids were extracted in chloroform:methanol (2:1) by the procedure of Folch, et al. (Folch J., Lees M., Sloane-Stanley G. H. A simple method for the isolation and purification of total lipids from animal tissue, J. Biol. Chem., 1957;226:497-509) and 300-500 μL of an internal standard, i.e., 200 mg/ml solution of 4-hydroxy-cholesterol in ethyl acetate:acetone (2:1), was added to the extracts of the thoracic aortic samples. After extraction, the organic phase was dried under nitrogen and redissolved in isooctane/tetrahydro-furan (97:3). The lipid content and composition of the thoracic aorta were measured using an HPLC method.
For histologic evaluation of the aortic arch lesions and for quantification of aortic arch cross-sectional lesion area, a 1 cm segment of the ascending aorta distal to the aortic valves was fixed in 10% neutral buffered formalin for 24 hours. The vessels were dehydrated, cleared in xylene, and infiltrated with molten paraffin (<60° C.) using a Tissue Tek VIP autoprocessor (Miles Scientific, Elkhart, Ind.). The tissue segments were embedded in paraffin and sectioned at 5 μm with a Reichert-Jung microtome (Baxter, McGraw Park, Ill.). In order to obtain a thorough representation of the histologic appearance of the aortic arch lesions, 3 ribbons of 20 sections each were cut. Each ribbon of sections was spaced approximately 100 μm apart. Three pairs of sections, i.e., 1 pair from each ribbon, were affixed to cleaned 3-aminopropyltriethoxy-silane coated glass slides and stored until stained. The general histologic character was evaluated in Verhoeff's elastica stained sections.
The gross extent of atherosclerosis within the aortic arch was measured. In addition, sections of the aortic arch, a site of hypercholesterolemia-induced lesions, stained using the Verhoeff's elastica procedure were used for quantification of lesion cross-sectional. The internal elastic lamina (IEL) was identified as a blue-black ring and images of that region were collected using a digital camera. The area within the IEL was quantified using the Image Pro Plus image analysis software. The area of the lumen of the aortic arch was also quantified in a similar fashion. Lesion area was defined as the difference between the area circumscribed by the internal elastic lamina and the lumen area.
Aortic arch lesion extent was also measured. The area distal to the 1 cm segment taken for histologic evaluation to the first intercostal ostia was removed from the animal, opened longitudinally and images of the surface of the vessel was collected using a digital camera. The lesions were identified as raised, opaque areas and their area was determined using the Image Pro Plus image analysis software. The area of the entire aortic arch was also determined. The percentage of aortic arch covered by atherosclerotic lesions was calculated.

monocytes = assay: Monocyte Recruitment Assay (chemotaxis of monocytes); format: cell-based; details: Monocyte; Table 3; read-out: Monocyte Recruitment Assay ED50
Method: Monocyte Recruitment Assay
The recruitment or chemotaxis of monocytes was assayed by methods well known to those skilled in the art. In particular, the method set forth in J. Clin. Invest., 1988;82:1853-1863, which is hereby incorporated by reference, was used.

melting point | IC50 ([1]; Table 2) | h15LO, value given as bare % ([1]; Table 2) | SMILES | further results
179 to 182 °C | – | – | COc1ccc(C(=O)Nc2ccc(Cl)c(Cl)c2)cc1N [Example 4, 3-Amino-4-methoxy-N-(3,4-dichlorophenyl)-benzamide] | IC50 ([1]; Table 1): 10 nM; Aortic Arch Cross-Sectional Lesion Area (% Δ from Control) [2]: −94 % Δ from Control; Aortic Arch Lesion Extent (% Δ from Control) [2]: +20 % Δ from Control; Aortic Cholesteryl Ester Content (% Δ from Control) [2]: −7 % Δ from Control
– | 7 nM | – | COc1ccc(C(=O)Nc2ccccc2)cc1Nc1cc(Cl)cc(Cl)c1 [Example 35, 3-(3,5-Dichloro-phenylamino)-4-methoxy-N-phenyl-benzamide] | EC50 (monocytes): 26300 nM
163 to 164 °C | 17 nM | – | COc1ccc(C(=O)Nc2ccc(F)cc2)cc1Nc1cccc(C(F)(F)F)c1 [Example 40, 3-(3-Trifluoromethyl-phenylamino)-4-methoxy-N-(4-fluorophenyl)-benzamide] | Aortic Arch Cross-Sectional Lesion Area (% Δ from Control) [2]: −6 % Δ from Control; Aortic Arch Lesion Extent (% Δ from Control) [2]: +35 % Δ from Control; Aortic Cholesteryl Ester Content (% Δ from Control) [2]: +5 % Δ from Control
– | – | – | COc1ccc(C(=O)Nc2ccccc2)cc1NCc1cc(Cl)cc(Cl)c1 [Example 51, 3-(3,5-Dichloro-benzylamino)-4-methoxy-N-phenyl-benzamide] | inhibition at 10 µM ([1]; 0.25 h, Table 2, @ 10 μM, read-out: h15LO % @ 10 μM): 69%; EC50 (monocytes): 20000 nM
– | 10000 nM | – | COc1ccc(C(=O)Nc2ccccc2)cc1NC(=S)NC(=O)c1ccccc1 [Example 67, 4-Methoxy-N-phenyl-3-(3-benzoyl-thioureido)-benzamide] | EC50 (monocytes): 24100 nM
201 to 202 °C | 104 nM | – | COc1ccc(C(=O)Nc2ccccc2)cc1NC(=S)Nc1ccc(C(=O)O)cc1 [Example 75, 4-[3-(2-Methoxy-5-phenylcarbamoyl-phenyl)-thioureido]-benzoic acid] | Aortic Arch Cross-Sectional Lesion Area (% Δ from Control) [2]: −90 % Δ from Control; Aortic Arch Lesion Extent (% Δ from Control) [2]: −49 % Δ from Control; Aortic Cholesteryl Ester Content (% Δ from Control) [2]: −28 % Δ from Control
175 to 178 °C | 8 nM | – | COc1ccc(C(=O)Nc2ccc(F)cc2)cc1NC(=S)Nc1cc(Cl)cc(Cl)c1 [Example 91, 3-[3-(3,5-Dichlorophenyl)-thioureido]-N-(4-fluorophenyl)-4-methoxy-benzamide] | Aortic Arch Cross-Sectional Lesion Area (% Δ from Control) [2]: −11 % Δ from Control; Aortic Arch Lesion Extent (% Δ from Control) [2]: −12 % Δ from Control; Aortic Cholesteryl Ester Content (% Δ from Control) [2]: +50 % Δ from Control
226 to 228 °C | 90 nM | – | COc1ccc(C(=O)Nc2ccc(Cl)c(Cl)c2)cc1NS(C)(=O)=O [Example 119, 3-Methanesulfonylamino-4-methoxy-N-(3,4-dichlorophenyl)-benzamide] | Aortic Arch Cross-Sectional Lesion Area (% Δ from Control) [2]: −50 % Δ from Control; Aortic Arch Lesion Extent (% Δ from Control) [2]: +46 % Δ from Control; Aortic Cholesteryl Ester Content (% Δ from Control) [2]: +46 % Δ from Control
180 to 183 °C | 12 nM | – | COc1ccc(C(=O)Nc2ccccc2)cc1NS(=O)(=O)c1cccs1 [Example 142, 3-(Thiophene-2-sulfonylamino)-4-methoxy-N-phenyl-benzamide] | –
231 to 232 °C | 25 nM | – | COc1ccc(C(=O)Nc2ccccc2)cc1NS(=O)(=O)c1cccc2c(N(C)C)cccc12 [Example 143, 3-(5-Dimethylaminonaphthalene-1-sulfonylamino)-4-methoxy-N-phenyl-benzamide] | –
152 to 153 °C | 1190 nM | – | COc1ccc(C(=O)Nc2ccccc2)cc1OC(=O)Oc1ccccc1 [Example 144, 2-Methoxy-5-phenylcarbamoyl-carbonic acid-phenyl ester phenyl ester] | –
139 to 140 °C | – | 35.29% | Nc1cc(C(=O)Nc2ccc(F)cc2)ccc1OC(F)(F)F [Example 146, 3-Amino-4-trifluoromethoxy-N-(4-fluoro-phenyl)-benzamide] | –
160 to 162 °C | 330 nM | – | COC(=O)c1cccc(NC(=O)c2ccc(OC)c(N)c2)c1 [Example 149, 3-(3-Amino-4-methoxy-benzoylamino)-benzoic Acid Methyl Ester] | –
165 to 166 °C | 629 nM | – | O=C(Nc1ccc(F)cc1)c1ccc(OC(F)(F)F)c(NC(=S)Nc2cc(Cl)cc(Cl)c2)c1 [Example 163, 3-[3-(3,5-Dichloro-phenyl)-thioureido]-4-trifluoromethoxy-N-(4-fluoro-phenyl)-benzamide] | –
153 to 154 °C | 1590 nM | – | O=C(Nc1ccc(F)cc1)c1ccc(OC(F)(F)F)c(NC(=S)Nc2cccc(C(F)(F)F)c2)c1 [Example 164] | –
151 to 152 °C | – | 93.61% | CCCCCCCCCCCCS(=O)(=O)Nc1cc(C(=O)Nc2ccc(Cl)c(Cl)c2)ccc1OC [Example 194, 3-(Dodecane-1-sulfonylamino)-4-methoxy-N-(3,4-dichloro-phenyl)-benzamide] | –
206 to 208 °C | – | 98.52% | COc1ccc(C(=S)Nc2ccccc2)cc1NS(=O)(=O)c1cc(Cl)cc(Cl)c1 [Example 208, 3-(3,5-Dichloro-benzenesulfonylamino)-4-methoxy-N-phenyl-thiobenzamide] | –
105 to 108 °C | – | 80.94% | COc1ccc(CNc2ccccc2)cc1NS(=O)(=O)c1cc(Cl)cc(Cl)c1 [Example 209, 3,5-Dichloro-N-(2-methoxy-5-phenylaminomethyl-phenyl)-benzenesulfonamide] | –
168 to 171 °C | – | 43% | COc1ccc(C(=O)Nc2ccccc2)cc1NC(=O)CC(=O)OCc1ccccc1 [Example 252, (2-Methoxy-5-phenylcarbamoyl-phenylcarbamoyl)-acetic acid phenylmethyl Ester] | –
142 to 144 °C | – | 60.56% | COc1ccc(C(=O)Nc2ccccc2)cc1NCCc1cccc(C(F)(F)F)c1 [Example 253, 4-Methoxy-N-phenyl-3-[2-(3-trifluoromethyl-phenyl)-ethylamino]-benzamide] | –
225 to 227 °C | – | 45% | COc1ccc(C(=O)Nc2ccccc2)cc1NC(=NC#N)Nc1cc(Cl)cc(Cl)c1 [Example 256, 3-[[(Cyanoimino)[(3,5-dichlorophenyl)amino]methyl]amino]-4-methoxy-N-phenyl-benzamide] | –
173 to 175 °C | – | 61% | COc1ccc(C(=O)Nc2ccccc2)cc1NC(=O)C(O)c1ccccc1 (centres unmarked) [Example 257, 3-(2-Hydroxy-2-phenyl-acetylamino)-4-methoxy-N-phenyl-benzamide] | –
